The record followed here is US4225619A, “Substituted fluoracylresorcinols” (Boehringer Ingelheim GmBH, priority 1976, dated 1980).

Experiment [1] relates to Pityrosporum ovale. Nature of the experiment: Serial dilution test for Pityrosporum ovale. The experiment is classed as cell-based. The following applies: Malassezia furfur, 168 h, 27° C. for 7 days, read-out: MIC, S.D.T., Pityrosporum ovale. Here is the method: Serial dilution test for Corynebacterium acnes and Pityrosporum ovale Nutrient medium
For Corynebacterium acnes: thioglycolate-broth for Pityrosporum ovale: Littmann's broth, 5 ml per tube.
Suspension of microorganisms in 0.9% sodium chloride solution, standardized using a photometer according to Eppendorf by means of a suspension for comparison consisting of barium sulfate, for Corynebacterium acnes in a dilution of 1:100, for Pityrosporum ovale in an undiluted state. 0.1 ml of the suspensions was used per test tube. Dimethyl sulfoxide served as a solvent for the substances.
The suspension with Corynebacteria acnes was incubated at 37° C. for 48 hours, the suspension of Pityrosporum ovale at 27° C. for 7 days. The reading was effected by macroscopic evaluation of the growth of microorganisms and registration of the minimal inhibitory concentration.

For experiment [2], the system named is HeLa-cell culture. Nature of the experiment: Inhibition of HeLa cell cultures. In kind it is cell-based. As to conditions: Homo sapiens, 72 h, 37° C. for 3 days, 5% carbon dioxide; for IC50: read-out: ED50, HeLa cell culture; for minimal effective concentration: read-out: Minimal inhibitory concentration, HeLa cell culture.
Experiment [3] concerns Staphylococcus aureus SG 511. Nature of the experiment: Serial dilution test. The experiment is classed as cell-based. The following applies: Staphylococcus aureus, SG511, 18-20 hours at 37° C., read-out: MIC, S.D.T., Staphylococcus aureus SG 511. As to the method:
The inhibitory effect on bacteria and fungi was examined by the serial dilution test and the agar diffusion test (hole-test). As bacteria were used: Staphylococcus aureus SG 511, Streptococcus Aronson, Streptococcus pyogenes At CC 86 68; as fungi: Candida albicans AT CC 10231, Trichophyton mentagrophytes AT CC 9129 and Aspergillus niger.
1. Meat extract broth: for St. aureus SG 511
The age of the primary cultures is 24 hours for bacteria and 14 days for fungi. The standardization of the suspension of microorganisms is effected using a photometer according to Eppendorf (test tube .phi.14 mm, filter 546 nm) and a suspension for comparison consisting of barium sulfate, this suspension being created by adition of 3.0 ml of 1% barium chloride solution to 97 ml of 1% sulfuric acid. After the standardization the bacteria were further diluted to a concentration of 1:1000 by means of sodium chloride solution, the fungi were used in an undiluted state.
40 mgm of the substance were put into a 10 ml measuring flask and filled up to the mark with the solvent (corresponds to a dilution of 1:250=4000 μg/ml). The further dilution series was standardized with distilled water or the respective solvent and the following substance concentrations were prepared: 1000; 250; 62.5 μg/ml.
The tubes were filled with 4.9 ml of the corresponding liquid nutrient medium. Then 0.1 ml of the substance dilution prepared above was added to each tube, so that the mentioned final concentrations were present. Finally each tube was inoculated with 0.1 ml of the standardized suspension of microorganisms. Control tests merely using the solvent are to be carried out simultaneously.
Bacteria were incubated at 37° C. for 18-20 hours and fungi at 27° C. for 7 days.
The measurement is carried out macroscopically defining the minimal inhibitory concentration (the lowest still microbiostatically effective concentration).

In experiment [4] the target is glucose-6-phosphate-dehydrogenase. In words: Inhibition of glucose-6-phosphate-dehydrogenase (G6PDH). The experiment is classed as biochemical. The following applies: for G6PDH-inhibition Ed50, Immediate Inhibition: 25° C. for 5 minutes preincubation; for G6PDH-inhibition Ed50, Inhibition of Incubation: 37° C. for 60 minutes preincubation. As to the method:
Measurement of the inhibition of the glucose-6-phosphatedehydrogenase
The equilibrium was observed:
Glucose-6-phosphate+NADP^+ G6-DH gluconic
acid-6-phosphate+NADPH+H^+
(NADP=nicotinamide-adenine-dinycleotide-phosphate, G6P-DH=gluconic acid-6-phosphate-dehydrogenase)
The formation velocity of NADPH is a measure for the enzyme activity; it may be observed by means of the extinction increase at 340, 334 or 366 nm per unit of time.
0.025 ml of glucose-6-phosphate-dehydrogenase (Boehringer Mannheim) were filled up to 10 ml of distilled water (solution I). 100 mgm of nicotinamide-adenine-dinucleotide-phosphate were dissolved in 13 ml of distilled water (solution II). 47.2 mgm of glucose-6-phosphate were dissolved in further 10 ml of distilled water (solution 3). Simultaneously a buffer solution (solution IV) was prepared as follows: 0.28 gm of triethanolamine-hydrochloride and 1.461 gm of ethylene diaminotetraacetic acid-disodium salt were dissolved in 1 liter of distilled water and adjusted to a pH of 7.6 with sodium hydroxide solution. The substance under test was dissolved in dimethyl formamide or ethanol (solution V). Tested concentrations: 50; 25; 12.5; 6.25; 3.125; 1.56 and 0.78 μg/ml.
0.1 ml of solution I, 0.1 ml of solution II, 2.67 ml of solution IV and 0.03 ml of solution V were mixed and kept at 25° C. for 5 minutes. Then 0.1 ml of solution III was added, mixed and the alteration of extinction was determined spectrophotometrically at 366 nm for 3 minutes.
0.1 ml of solution I, 0.1 ml of solution II, 2.67 ml of solution IV and 0.03 ml of solution V were mixed and kept at 37° C. for 60 minutes. Then 0.1 ml of solution III was added, mixed and the alteration of extinction was measured spectrophotometrically at 366 nm for 3 minutes.
The inhibitory values were calculated from the average values of three measurements (alteration of extinction per minute) compared with controls, which received the pure solvent as the inhibitory solution. Then the ED50 was calculated according to Reed and Muench from the inhibitory values for the various concentrations.

≈ marks a conversion by molar mass, not a printed value.

The term MIC denotes the lowest concentration that inhibits growth of the organism. With `CC1CCC(c2c(O)ccc(C(=O)C(F)(F)F)c2O)CC1` (stereo not shown) [H, 2,4-Dihydroxy-3-(4'-methyl)-cyclohexyl-trifluoro-acetophenone], the figures for the MIC in experiment [1] and in experiment [3] were > 80 µg/mL and 0.31 µg/mL (≈ 1.03 µM), respectively. Besides, in experiment [2], the IC50 worked out at 4.2 µg/mL (≈ 13.9 µM). The minimal effective concentration in experiment [2] is ≤ 0.78 µg/mL.

Take `COc1ccc(C(=O)C(F)(F)F)c(OC)c1` [D, 2,4-Dimethoxy-trifluoroacetophenone, reference compound]: the minimum inhibitory concentration (MIC) in experiment [1] is > 80 µg/mL. Further, in experiment [2], the IC50 came out at 90.1 µg/mL (≈ 385 µM) and the minimal effective concentration was determined as 25 µg/mL. Moreover, in experiment [3], the MIC is > 80 µg/mL. In addition, in experiment [4], the “G6PDH-inhibition Ed50, Immediate Inhibition” value is > 50 µg/mL and the “G6PDH-inhibition Ed50, Inhibition of Incubation” value is > 50 µg/mL.

Regarding `CCc1c(O)ccc(C(=O)C(F)(F)F)c1O` [C, 3-Ethyl-2,4-dihydroxy-trifluoroacetophenone, reference compound], the MIC is > 80 µg/mL in experiment [1] and 5 µg/mL (≈ 21.4 µM) in experiment [3]. Further, the “G6PDH-inhibition Ed50, Immediate Inhibition” value in experiment [4] came to 37.5 µg/mL. In experiment [4], the “G6PDH-inhibition Ed50, Inhibition of Incubation” value is 20 µg/mL.

For `CCc1cc(C(=O)C(F)(F)F)c(O)cc1O` [B, 5-Ethyl-2,4-dihydroxy-trifluoroacetophenone, reference compound], the MIC in experiment [1] was 80 µg/mL (≈ 342 µM). Moreover, in experiment [2], the IC50 is 9.75 µg/mL (≈ 41.6 µM) and the minimal effective concentration worked out at 6.25 µg/mL. In experiment [3], the MIC is 20 µg/mL (≈ 85.4 µM). Further, in experiment [4], the “G6PDH-inhibition Ed50, Immediate Inhibition” value turned out to be 34.5 µg/mL and the “G6PDH-inhibition Ed50, Inhibition of Incubation” value turned out to be 30 µg/mL.

Regarding `CC(C)c1c(O)ccc(C(=O)C(F)(F)F)c1O` [P, 2,4-Dihydroxy-3-isopropyl-trifluoroacetophenone], in experiment [2], the IC50 came to 3.52 µg/mL (≈ 14.2 µM) and the minimal effective concentration amounted to 1.56 µg/mL. Also, the MIC in experiment [3] was found to be 1.25 µg/mL (≈ 5.04 µM). Besides, in experiment [4], the “G6PDH-inhibition Ed50, Immediate Inhibition” value stood at 14.8 µg/mL and the “G6PDH-inhibition Ed50, Inhibition of Incubation” value amounted to 9.9 µg/mL.

As to `CC(C)Cc1c(O)ccc(C(=O)C(F)(F)F)c1O` [F, 2,4-Dihydroxy-3-iso-butyl-trifluoroacetophenone], the MIC in experiment [1] came to 80 µg/mL (≈ 305 µM). Also, in experiment [2], the IC50 worked out at 7.7 µg/mL (≈ 29.4 µM) and the minimal effective concentration turned out to be 0.78 µg/mL. Besides, the MIC in experiment [3] was determined as 0.08 µg/mL (≈ 0.305 µM). Moreover, in experiment [4], the “G6PDH-inhibition Ed50, Immediate Inhibition” value came to 37.7 µg/mL and the “G6PDH-inhibition Ed50, Inhibition of Incubation” value is 27.7 µg/mL.

`O=C(c1ccc(O)cc1O)C(F)(F)F` [A, 2,4-Dihydroxy-trifluoroacetophenone, reference compound]: the MIC in experiment [1] worked out at 80 µg/mL (≈ 388 µM). In experiment [2], the IC50 was determined as 12.5 µg/mL (≈ 60.6 µM) and the minimal effective concentration worked out at 3.13 µg/mL. Besides, the MIC in experiment [3] was 80 µg/mL (≈ 388 µM). Besides, in experiment [4], the “G6PDH-inhibition Ed50, Immediate Inhibition” value was > 50 µg/mL and the “G6PDH-inhibition Ed50, Inhibition of Incubation” value was 33 µg/mL.
